Key:
[1] = system: isolated rat hepatocytes; settings: cited from earlier work
[2] = system: hexokinase; settings: cited from earlier work
[3] = system: rodents; settings: cited from earlier work
[4] = injected into a rat; cited from earlier work
[5] = cited from earlier work
[6] = system: Labrador Retrievers; test: Serum Trp:LNAA ratio in dogs fed control diet or control diet +MH (HPLC amino acid analysis); assay type: in vivo; settings: 200 ppm MH in the diet
Excerpt: Brain serotonin is known to influence the mood. Serotonin is synthesized in the brain from tryptophan, which uptake into the brain is dependent on the plasma ratio of tryptophan to the sum of other large neutral amino acids (Trp/LNAA). Other large amino acids include leucine, isoleucine, valine, phenylalanmine and tyrosine. It is well accepted that carbohydrate rich diets increase this ration and protein rich diets decrease the ration, in other words, when there is decrease in insulin sensitivity and a greater glycemic response, greater Trp/LNAA ratios are expected. Blood samples for amino acid analysis were collected from a total of 51 dogs fed a control diet or a control diet +MH. The blood samples were collected from two cohorts of Labrador Retrievers. Cohort 1 included 19 neutered Labrador Retrievers, 5 male and 14 female, ranged in age from 12.6 to 15.7 years old at the time of sampling. Cohort 2 included 32 neutered Labrador Retrievers, 9 males and 23 females ranged in age from 8.3 to 12.5 years old at the time of sampling. Each cohort was fed similar a control diet or a test diet where the only differences was inclusion of mHep enriched avocado juice concentrate targeted to supply 200 ppm MH in the diet. The avocado juice concentrate was derived from whole fruit (flesh, peel and pit) avocados. […]

[7] = cited from earlier work; remark: listed apart in the source
[8] = system: Labrador Retrievers; test: Annual kennel assessment of affective behavior in dogs fed control diet or control diet+MH; assay type: in vivo
Excerpt: Annual kennel assessments (period of 5 years) have been conducted on dogs fed a control diet or a control diet+MH. This assessment included two cohorts of Labrador Retrievers. Cohort 1 included 39 neutered Labrador Retrievers, 12 male and 27 female, ranged in age from 5.1 to 8.2 years old at the beginning of the test-feeding period (mean age at the beginning of the study 6.7 years). Cohort 2 included 41 neutered Labrador Retrievers, 12 males and 29 females ranged in age from 2.0 to 6.1 years old at the beginning of the test feeding period (mean age at the beginning of the study 4.0 years). Each cohort was fed a control diet or a test diet where the only differences was inclusion of mHep-enriched avocado extract targeted to supply 2 mg/kg body weight of MH. All researchers, lab assistants, and assessors were blinded to the feeding groups. Dogs were assessed during August and September each year. Each scorer was instructed to operate independently. Trained assessors were categorized as either familiar or unfamiliar to the dogs. The familiar assessors were people that worked with the dogs on a regular basis. […] Each assessing group was comprised of a handler and two scorers. All dogs were assessed with three people in the room with at least one familiar scorer in each group. This created a total of three possible conditions: familiar handler, two familiar scorers (Fam/Fam); familiar handler, one unfamiliar scorer, one familiar scorer (Fam/Unfam); unfamiliar handler, one unfamiliar scorer, one familiar scorer (Unfam/Unfam). The behaviors are outlined in Table 1. Calculating score: Assessors were asked to score dogs on a scale from 1-5 including half scores. For the behavior items, a score of 1 signified “Fails To Do” while 5 signified “Excellent”. For the demeanor items, a score of 1 signified “Strongly” while a score of 5 signified “Not at All”. All necessary items were reverse scored to allow higher scores to indicate a more favorable score and lower score to indicate a less favorable score. The sums of the corresponding behavior and demeanor items were used to calculate the score for each of the two behavior components. These scores were used to compare changes across years and between groups. [table]

[9] = injected, rats, cited from earlier work
[10] = system: cats; test: Behavioural assessment of play motivation in cats (weighted swing door); assay type: in vivo; settings: vs same diets without MH
Excerpt: Twenty cats (N=20) of similar age (˜2.5 years), and split 10 female (5 lean and 5 moderately overweight) and 10 male (5 lean and 5 moderately overweight). To effectively test the effects of MH on energy metabolism dietary energy needs, intended to maintain weight, were provided equally between animals on a body weight basis; therefore, each cat received 45 kcal ME/kg body weight/d (females) and 50 kcal ME/kg body weight/d (males).
For two weeks prior to the initiation of the study cats were fed Iams® Original Chicken. Diets were presented in kibble form and cats were fed individually at 7:00 am each day and will be permitted 60 minutes to eat during food offerings. This feeding protocol were maintained throughout the entire study except on days in which fasted blood/calorimetry samples are obtained as cats were fed following the sampling period which was no later than 9:00 am. […]
Two walled stalls (each measuring: 100 cm W×100 cm L×75 cm H; Quenn City polymers, Dayton, Ohio), one classified as the start box and the other the goal box, each with a plexi-glass roof containing a 1 cm diameter hole in the center, were placed next to each other and connected via a swing door (23 cm W×18 cm H). […] Cats were assessed two times per dietary treatment on day 14 and again on day 37 at approximately 5 hrs post feeding. […]

[11] = 2 mg/kg body weight MH, vs control diet

Q: Which “effect on glucose formation and utilization” value [1] does the source give for `OC[C@H]1O[C@H](CO)[C@@H](O)[C@@H]1O` [2,5-Anhydro-D-mannitol, 2,5-anhydro-D-mannitol] here?
A: interfere in glucose formation and utilization

Q: For `O=P(O)(O)OC[C@H]1OC[C@H](O)[C@@H](O)[C@@H]1O` [1,5-anhydro-D-glucitol-6-phosphate], which inhibition of hexokinase [2] is on record?
A: allosteric (non-competitive) inhibitor of hexokinase

Q: With `O=CC[C@@H](O)[C@H](O)[C@H](O)CO` [2-deoxy-D-glucose] as the compound, how does the “side effects and toxicity” value ([3]; high doses) read?
A: significant untoward side effects and toxicity have been observed

Q: And the “mimicking metabolic hallmarks of caloric restriction” value ([3]; rodents, long-term, lower dose)?
A: can mimic some of the major metabolic hallmarks of caloric restriction and enhanced longevity, including reduced body temperature, weight loss, and lower fasting insulin levels

Q: With `O=C[C@H](O)[C@@H](O)[C@H](O)[C@H](S)CO` [5-Thioglucose, 5-thio-D-glucose] as the compound, how does the “excreted unchanged in urine” value [4] read?
A: 97%

Q: With `CO[C@@H]([C@H](O)[C@H](O)CO)[C@@H](O)C=O` [3-O-methylglucose] as the compound, how does the “metabolism of the analog” value ([5]; in contrast with 2-deoxy-D-glucose) read?
A: not metabolized

Q: And the “responses to administration (prevention of glucose utilization as energy source) relative to 2-deoxyglucose” value ([5]; rats)?
A: about seven times weaker than those to 2-deoxyglucose

Q: Which “enzymatic conversion to the 6-phosphate” value ([2]; compared with 2-deoxy-glucose) does the source give for `OC[C@H]1OC[C@H](O)[C@@H](O)[C@@H]1O` [1,5-Anhydro-D-Glucitol, 1,5-anhydro-D-glucitol] here?
A: less efficient than that of 2-deoxy-glucose

Q: Which “Trp:LNAA concentrations, fasting vs 4 hrs post fed” value ([6]; Cohort 1 (older dogs), P>0.05) does the source give for `O=C(CO)[C@@H](O)[C@@H](O)[C@H](O)[C@H](O)CO` [mannoheptulose] here?
A: no differences

Q: What about the “Trp:LNAA concentrations, fasting vs 4 hrs post fed” value ([6]; old and young cohorts pooled) of the same compound?
A: no differences

Q: And the “mannoheptulose ingested appearing in urine” value ([7]; after oral administration)?
A: About 5%

Q: What about the “safety of oral doses” value ([7]; doses of 10 grams, humans, orally) of the same compound?
A: safely administered

Q: What about the “comfort in new areas score” value ([8]; 2 mg/kg body weight MH, unfamiliar/unfamiliar condition, vs control diet) of the same compound?
A: significantly better response

Q: What about the “score for ability to handle new areas” value [8, 11] of the same compound?
A: higher scores

Q: And the “score for social interaction” value [8, 11]?
A: higher scores

Q: And the “social interaction score, difference between groups” value ([8]; fam/fam or unfam/unfam condition)?
A: not different

Q: And the “remained in the body” value ([9]; a day after the injection)?
A: 5%

Q: And the excreted unchanged [9]?
A: 66%

Q: And the metabolized [9]?
A: 29%

Q: What about the motivation to play [10] of the same compound?
A: significantly greater motivation to play

Source: patent US20160374368A9, “Mimicking the Metabolic Effect of Caloric Restrictions by Administration of Glucose Anti-Metabolites to Enhance Positive Response in a Mammal” (The Iams Company, priority 2013, published 2016)
